In brackets after ≈: the same amount, converted by molar mass. Bounds are passed on as bounds.

One data set relates to HRV 14. Description: Cytopathic effect (CPE) inhibition assay. It is filed as cell-based, human rhinovirus. As to conditions: Human rhinovirus sp., HeLa, 72 h, host cell HeLa, 3 days, MEM/2% FBS, MTT assay; read-out: EC50 HRV 14. (Damage to the host cells serves as the signal in cytopathic effect assays.)
A further data set deals with HRV 71. Nature of the data set: Cytopathic effect (CPE) inhibition assay. The format is cell-based, human rhinovirus. Particulars: Human rhinovirus sp., 72 h; host cell HeLa, 3 days, MEM/2% FBS, MTT assay; read-out: EC50 HRV 71.
A short description of a further data set: in vitro. Particulars: human.
Another data set has as its system poliovirus 3 (PV3). Nature of the data set: microbe, parasite or virus in culture. The format is cell-based. As to conditions: Enterovirus C, 72 h, read-out: EC50 PV3.
Data set [1] can be described thus: Cytotoxicity (CC50) in multicycle CPE reduction assay, MTS. As to conditions: human.
Data set [2] deals with coxsackievirus B3 (Cox B3). Nature of the data set: Multicycle cytopathic effect (CPE) reduction assay. The format is cell-based. As to conditions: Enterovirus B, B3, 72 h, read-out: EC50 CoxB3.
The subject of the next data set is HRV 21. Description: Cytopathic effect (CPE) inhibition assay. The format is cell-based, human rhinovirus. As to conditions: Human rhinovirus sp., 72 h; host cell HeLa, 3 days, MEM/2% FBS, MTT assay; read-out: EC50 HRV 21.
Data set [3] concerns coxsackievirus B1 (Cox B1). Description: Multicycle cytopathic effect (CPE) reduction assay. The format is cell-based. Particulars: Enterovirus B, B1, 72 h, read-out: EC50 CoxB1.

Take `CC(C)CC(=O)C(=O)NC12C(=O)c3cccc([N+](=O)[O-])c3C1(O)Oc1cc(C(C)C)ccc12` (centres unmarked) [Example 38, N-(4b hydroxyl-7-isopropyl-4-nitro-10-oxo-4b, 10-dihydro-9bH-indeno[1,2-b]benzofuran-9b-yl)-4-methyl-2-oxo pentanamide]: the half-maximal effective concentration (EC50) in the data set with HRV 14 is < 10 µg/mL; in the data set on HRV 71 it was > 10 µg/mL; with poliovirus 3 (PV3), < 10 µg/mL; in data set [2], < 1 µg/mL; in the data set on HRV 21, > 10 µg/mL; in data set [3], < 1 µg/mL. In addition, in the data set “in vitro”, the CC50 is > 10 µg/mL. Moreover, the CC50 at 3 days in data set [1] is > 10 µg/mL.
Regarding `CC(C)c1ccc2c(c1)OC1(O)c3ccccc3C(=O)C21NC(=O)C(=O)CCc1ccccc1` (centres unmarked) [Example 39, N-(4b-hydroxy-7-isopropyl-10-oxo-4b, 10-dihydro-9bH-indeno[1,2-b]benzofuran-9b-yl)-2-oxo-4-phenyl butanamide], the EC50 in the data set with HRV 14 was < 10 µg/mL; in the data set with HRV 71, > 9.5 µg/mL; in the data set on poliovirus 3 (PV3), < 10 µg/mL; in data set [2] it was < 0.1 µg/mL; with HRV 21, > 9.5 µg/mL; in data set [3] it was < 0.1 µg/mL. In addition, in the data set “in vitro”, the CC50 came to 9.5 µg/mL (≈ 20.9 µM). Besides, in data set [1], the CC50 at 3 days is > 10 µg/mL.
With `CCC(C)C(=O)C(=O)NC12C(=O)c3c(N)cccc3C1(O)Oc1cc(C(C)C)ccc12` (centres unmarked) [Example 40, N-(1-amino-4b-hydroxy-7-isopropyl-10-oxo-4b, 10-dihydro-9bH-indeno[1,2-b]benzofuran-9b-yl)-3-methyl-2-oxo pentanamide], the EC50 in the data set on HRV 14 was < 0.1 µg/mL; with HRV 71, > 10 µg/mL; in the data set with poliovirus 3 (PV3) it was < 0.1 µg/mL; in data set [2], < 0.01 µg/mL; in the data set with HRV 21, > 10 µg/mL; in data set [3], < 0.01 µg/mL. Also, the CC50 in the data set “in vitro” is > 10 µg/mL. Besides, the CC50 at 3 days in data set [1] was > 10 µg/mL.
For `CC(C)c1ccc2c(c1)OC1(O)c3ccccc3C(=O)C21NC(=O)C(=O)CBr` (centres unmarked) [Example 41, 3-bromo-N-(4b-hydroxy-7-isopropyl-10-oxo-4b, 10-dihydro-9bH-indeno[1,2-b]benzofuran-9b-yl)-2-oxo propanamide], the EC50 was < 10 µg/mL in the data set with HRV 14; > 10 µg/mL with HRV 71; > 10 µg/mL in the data set with poliovirus 3 (PV3); < 0.1 µg/mL in data set [2]; > 10 µg/mL with HRV 21; < 0.1 µg/mL in data set [3]. In addition, in the data set “in vitro”, the CC50 was > 10 µg/mL. Moreover, the CC50 at 3 days in data set [1] is > 10 µg/mL.
For `CC(C)c1ccc2c(c1)OC1(O)c3ccccc3C(=O)C21NC(=O)C(=O)CC(=O)c1ccncc1` (centres unmarked) [Example 42, N-(4b-hydroxy-7-isopropyl-10-oxo-4b, 10-dihydro-9bH-indeno[1,2-b]benzofuran-9b-yl)-2,4-dioxo-4-(pyridyn-4-yl)butanamide], the EC50 with HRV 14 was < 10 µg/mL; in the data set with HRV 71, > 10 µg/mL; in the data set with poliovirus 3 (PV3) it was > 10 µg/mL; in data set [2], < 0.1 µg/mL; with HRV 21, > 10 µg/mL; in data set [3], < 0.1 µg/mL. Besides, in “in vitro”, the CC50 is > 10 µg/mL. The CC50 at 3 days in data set [1] is > 10 µg/mL.
Take `CC(C)c1ccc2c(c1)OC1(O)c3ccccc3C(=O)C21NC(=O)CCC(=O)O` (centres unmarked) [Example 43]: the concentration giving a half-maximal response (EC50) with HRV 14 was > 10 µg/mL; with HRV 71, > 10 µg/mL; with poliovirus 3 (PV3), > 10 µg/mL; in data set [2] it was < 1 µg/mL; in the data set with HRV 21, > 10 µg/mL; in data set [3], < 1 µg/mL. For the same compound, in “in vitro”, the CC50 was > 10 µg/mL. In data set [1], the CC50 at 3 days was > 10 µg/mL.
In the case of `CC(C)c1ccc2c(c1)OC1(O)c3ccccc3C(=O)C21NC#N` (centres unmarked) [Example 46, N-(4b-hydroxy-7-isopropyl-10-oxo-4b, 10-dihydro-9bH-indeno[1,2-b]benzofuran-9b-yl)cyanamide], the EC50 is > 10 µg/mL in the data set on HRV 14; > 10 µg/mL in the data set on HRV 71; > 10 µg/mL in the data set with poliovirus 3 (PV3); < 10 µg/mL in data set [2]; > 10 µg/mL in the data set with HRV 21; < 10 µg/mL in data set [3]. Besides, the CC50 in “in vitro” was > 10 µg/mL. In addition, the CC50 at 3 days in data set [1] was > 10 µg/mL.
For `CC(C)c1ccc2c(c1)OC1(O)c3ccccc3C(=O)C21NC(=O)C(=O)N1CCN(C)CC1` (centres unmarked) [Example 48, N-(4b-hydroxy-7-isopropyl-10-oxo-4b, 10-dihydro-9bH-indeno[1,2-b]benzofuran-9b-yl)-2-(4-methylpiperazin-1-yl)-2-oxo acetamide], the 50% effective concentration (EC50) in the data set on HRV 14 was < 1 µg/mL; in the data set with HRV 71, > 10 µg/mL; in the data set with poliovirus 3 (PV3), < 10 µg/mL; in data set [2] it was < 0.1 µg/mL; in the data set with HRV 21, > 10 µg/mL; in data set [3], < 0.1 µg/mL. Moreover, the CC50 in the data set “in vitro” is > 10 µg/mL. In data set [1], the CC50 at 3 days is > 10 µg/mL.
As for `CC(C)CC(=O)C(=O)NC12C(=O)c3c(N)cccc3C1(O)Oc1cc(C(C)C)ccc12` (centres unmarked) [Example 49, N-(1-amino-4b-hydroxy-7-isopropyl-10-oxo-4b, 10-dihydro-9bH-indeno[1,2-b]benzofuran-9b-yl)-4-methyl-2-oxo pentanamide], the EC50 with HRV 14 was < 0.1 µg/mL; in the data set with HRV 71 it was > 10 µg/mL; in the data set on poliovirus 3 (PV3) it was < 0.1 µg/mL; in data set [2], < 0.01 µg/mL; in the data set on HRV 21 it was > 10 µg/mL; in data set [3], < 0.01 µg/mL. In the data set “in vitro”, the CC50 was > 10 µg/mL. In data set [1], the CC50 at 3 days is > 10 µg/mL.
For `Cc1cc(C)c(C(=O)C(=O)NC23C(=O)c4cccc([N+](=O)[O-])c4C2(O)Oc2cc(C(C)C)ccc23)c(C)c1` (centres unmarked) [Example 51], the EC50 in the data set with HRV 14 is > 10 µg/mL; with HRV 71, > 10 µg/mL; in the data set on poliovirus 3 (PV3) it was > 10 µg/mL; in data set [2] it was < 10 µg/mL; in the data set on HRV 21, > 10 µg/mL; in data set [3], < 10 µg/mL. In addition, in “in vitro”, the CC50 is > 10 µg/mL. The CC50 at 3 days in data set [1] is > 10 µg/mL.
`CCCC(=O)C(=O)NC12C(=O)c3c(N)cccc3C1(O)Oc1cc(C(C)C)ccc12` (centres unmarked) [Example 52, N-(1-amino-4b-hydroxy-7-isopropyl-10-oxo-4b, 10-dihydro-9bH-indeno[1,2-b]benzofuran-9b-yl)-2-oxo pentanamide]: the EC50 in the data set on HRV 14 was < 0.01 µg/mL; in the data set on HRV 71 it was > 10 µg/mL; in the data set on poliovirus 3 (PV3) it was < 0.1 µg/mL; in data set [2] it was < 0.01 µg/mL; with HRV 21, > 10 µg/mL; in data set [3], < 0.01 µg/mL. Further, the CC50 in the data set “in vitro” was > 10 µg/mL. Moreover, the CC50 at 3 days in data set [1] was > 10 µg/mL.
As to `CC(C)c1ccc2c(c1)OC1(O)c3c(cccc3[N+](=O)[O-])C(=O)C21NC(=O)C(=O)CCc1ccccc1` (centres unmarked) [Example 53, N-(4b-hydroxy-7-isopropyl-4-nitro-10-oxo-4b, 10-dihydro-9bH-indeno[1,2-b]benzofuran-9b-yl)-2-oxo-4-phenyl butanamide], the EC50 in the data set with HRV 14 is > 4.8 µg/mL; in the data set with HRV 71, > 4.8 µg/mL; with poliovirus 3 (PV3) it was > 10 µg/mL; in data set [2], < 10 µg/mL; in the data set with HRV 21, > 4.8 µg/mL; in data set [3], < 10 µg/mL. In the data set “in vitro”, the CC50 was 4.8 µg/mL (≈ 9.59 µM). For the same compound, in data set [1], the CC50 at 3 days was > 10 µg/mL.
For `Cc1cc(C)c(C(=O)C(=O)NC23C(=O)c4c(N)cccc4C2(O)Oc2cc(C(C)C)ccc23)c(C)c1` (centres unmarked) [Example 54, N-(1-amino-4b-hydroxy-7-isopropyl-10-oxo-4b, 10-dihydro-9bH-indeno[1,2-b]benzofuran-9b-yl)-2-mesityl-2-oxo acetamide], the EC50 in the data set on HRV 14 is < 1 µg/mL; in the data set with HRV 71, > 8.6 µg/mL; in the data set on poliovirus 3 (PV3), < 10 µg/mL; in data set [2], < 0.1 µg/mL; in the data set with HRV 21 it was > 8.6 µg/mL; in data set [3], < 0.1 µg/mL. Also, the CC50 in the data set “in vitro” was 8.6 µg/mL (≈ 17.7 µM). In data set [1], the CC50 at 3 days was > 10 µg/mL.
For `CC(C)c1ccc2c(c1)OC1(O)c3ccccc3C(=O)C21N/C(=N\C(=O)OC(C)(C)C)NC(=O)OC(C)(C)C` (centres unmarked) [Example 55], the concentration giving a half-maximal response (EC50) is < 10 µg/mL in the data set with HRV 14; > 10 µg/mL with HRV 71; > 10 µg/mL in the data set on poliovirus 3 (PV3); < 1 µg/mL in data set [2]; > 10 µg/mL in the data set with HRV 21; < 1 µg/mL in data set [3]. In the data set “in vitro”, the CC50 is > 10 µg/mL. Further, the CC50 at 3 days in data set [1] is > 10 µg/mL.
As for `CC(C)c1ccc2c(c1)OC1(O)c3ccccc3C(=O)C21OC(=O)NCCNC(=O)OC(C)(C)C` (centres unmarked) [Example 56, Tert-butyl (4b-hydroxy-7-isopropyl-10-oxo-4b, 10-dihydro-9bH-indeno[1,2-b]benzofuran-9b-yl)ethan-1,2-diyl dicarbamate], the EC50 in the data set with HRV 14 was > 10 µg/mL; in the data set with HRV 71, > 10 µg/mL; in the data set with poliovirus 3 (PV3), > 10 µg/mL; in data set [2], < 10 µg/mL; in the data set on HRV 21 it was > 10 µg/mL; in data set [3] it was < 10 µg/mL. The CC50 in “in vitro” was > 10 µg/mL. Moreover, the CC50 at 3 days in data set [1] is > 10 µg/mL.
Take `COc1cc(C(=O)C(=O)NC23C(=O)c4cccc([N+](=O)[O-])c4C2(O)Oc2cc(C(C)C)ccc23)cc(OC)c1OC` (centres unmarked) [Example 58, N-(4b-hydroxy-7-isopropyl-4-nitro-10-oxo-4b, 10-dihydro-9bH-indeno[1,2-b]benzofuran-9b-yl) 2-oxo-2-(3,4,5-trimethoxyphenyl)acetamide]: the EC50 in the data set with HRV 14 is < 10 µg/mL; in the data set on HRV 71 it was > 10 µg/mL; with poliovirus 3 (PV3), > 10 µg/mL; in data set [2] it was < 10 µg/mL; in the data set on HRV 21 it was > 10 µg/mL; in data set [3], < 10 µg/mL. Further, in the data set “in vitro”, the CC50 is > 10 µg/mL. Moreover, the CC50 at 3 days in data set [1] was > 10 µg/mL.

As usually defined, the EC50 is the concentration that produces a half-maximal response.

Source of the values: patent publication US9951058B2, “Compound, pharmaceutically acceptable salt or optical isomer thereof, method for preparing the same, and pharmaceutical composition for prevention or treatment of viral diseases containing same as active ingredient” (Korea Research Institute of Chemical Technology, priority 2012, dated 2018).
